Test results from publication PMC3265452 (PLoS Neglected Tropical Diseases, 2012).
Counter-ions that a name gives are not always drawn.

Target: AaDOP2 (Aedes aegypti, UniProt H6D5H2)
Assay: AaDOP2 antagonist screen of the LOPAC1280 library (HEK-CRELuc-Aadop2 cells, luminescence)
Assay type: cell-based
Conditions: not given

Chain of AaDOP2 (H6D5H2 1-476): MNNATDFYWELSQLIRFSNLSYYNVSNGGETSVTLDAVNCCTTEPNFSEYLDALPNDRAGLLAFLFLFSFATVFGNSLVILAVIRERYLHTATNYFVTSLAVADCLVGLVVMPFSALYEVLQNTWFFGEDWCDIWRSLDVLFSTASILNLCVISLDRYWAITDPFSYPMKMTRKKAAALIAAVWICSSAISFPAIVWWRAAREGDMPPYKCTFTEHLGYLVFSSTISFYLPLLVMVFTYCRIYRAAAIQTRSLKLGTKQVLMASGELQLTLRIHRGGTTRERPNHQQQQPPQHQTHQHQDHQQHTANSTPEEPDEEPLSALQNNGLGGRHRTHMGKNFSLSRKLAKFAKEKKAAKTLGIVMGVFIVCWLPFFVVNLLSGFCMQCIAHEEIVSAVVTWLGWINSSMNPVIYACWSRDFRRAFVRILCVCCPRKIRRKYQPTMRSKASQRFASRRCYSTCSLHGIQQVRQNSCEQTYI

| Compound | Compound effect (percent receptor signaling in presence of test compound, relative lux units relative to the SCH23390 control) |
| --- | --- |
| C[N+](C)(C)CCCCCCCCCC[N+](C)(C)C.[Br-].[Br-] [Compound 359, Decamethonium dibromide] | 98 |
| Clc1ccccc1C(c1ccccc1)(c1ccccc1)n1ccnc1 [Compound 280, Clotrimazole] | 77 |
| CCCn1c(=O)c2[nH]c(-c3ccc(OCC(=O)Nc4ccc(C#N)cc4)cc3)nc2n(CCC)c1=O [Compound 785, MRS 1754] | 98 |
| CN(C)c1nc(N)c(C(=O)NC(=N)N)nc1Cl [Compound 50, 5-(N,N-Dimethyl)amiloride hydrochloride] | 108 |
| CC(=O)[C@]1(O)Cc2c(O)c3c(c(O)c2[C@@H](O[C@H]2C[C@H](N)[C@H](O)[C@H](C)O2)C1)C(=O)c1ccccc1C3=O [Compound 636, Idarubicin] | 17 |
| CCCc1c(OCCCOc2ccc(OCC(=O)O)cc2)ccc(C(C)=O)c1O [Compound 614, L-165,041] | 116 |
| CCCN(CCC)CCc1c[nH]c2ccc(C(N)=O)cc12.O=C(O)/C=C\C(=O)O [Compound 457, N,N-Dipropyl-5-carboxamidotryptamine maleate] | 106 |
| NCCCCN=C(N)N [Compound 78, Agmatine sulfate] | 113 |
| COC(=O)C1=C(C)NC(C)=C(C(=O)OC)C1c1ccccc1[N+](=O)[O-] [Compound 866, Nifedipine] | 78 |
| Nc1nc(N)c2nc(-c3ccccc3)c(N)nc2n1 [Compound 1168, Triamterene] | 115 |
| C/C(O)=C(\C#N)C(=O)Nc1cc(Br)ccc1Br [Compound 713, LFM-A13] | 98 |
| CC(C)Cn1c(=O)n(C)c(=O)c2[nH]cnc21 [Compound 649, 3-Isobutyl-1-methylxanthine] | 129 |
| COC(=O)c1cc2c(cn1)[nH]c1ccccc12 [Compound 501, Methyl beta-carboline-3-carboxylate] | 118 |
| NCCCCCC(=O)O [Compound 89, 6-Aminohexanoic acid] | 120 |
| CC(=O)NNC(=O)N1Cc2ccccc2Oc2ccc(Cl)cc21 [Compound 1094, SC 19220] | 99 |
| CCCCCCCCCCCCCCCCCC(=O)NCC(COP(=O)([O-])OCC[N+](C)(C)C)OCC (racemic) [Compound 489, rac-2-Ethoxy-3-octadecanamido-1-propylphosphocholine] | 65 |
| NS(=O)(=O)c1cc(C(=O)O)c(NCc2ccco2)cc1Cl [Compound 518, Furosemide] | 129 |
| O=C(O)CCCCCCCC(=O)O [Compound 6, Azelaic acid] | 107 |
| CN1C(C(=O)Nc2ccccn2)=C(O)c2ccccc2S1(=O)=O [Compound 954, Piroxicam] | 83 |
| Cc1ccc(Cl)c(Nc2ccccc2C(=O)O)c1Cl [Compound 769, Meclofenamic acid sodium] | 107 |

| Compound | Compound effect (percent receptor signaling in presence of test compound, relative lux units relative to the SCH23390 control) |
| --- | --- |
| Cc1ccc(=O)n(-c2ccccc2)c1 [Compound 931, Pirfenidone] | 102 |
| CCN1C[C@]2(C)CC[C@H](O)[C@]34C1[C@@H](C[C@H]23)[C@@]1(O)C[C@H](OC)[C@H]2C[C@@H]4[C@@H]1[C@H]2O [Compound 690, Karakoline] | 101 |
| CCCOc1ccccc1-c1nc2nn[nH]c2c(=O)[nH]1 [Compound 1276, Zaprinast] | 115 |
| O=c1[nH]c2cc(C(F)(F)F)ccc2n1-c1cc(C(F)(F)F)ccc1O [Compound 890, NS-1619] | 86 |
| O=P1(N(CCCl)CCCl)NCCCO1 (stereo not drawn) [Compound 224, Cyclophosphamide monohydrate] | 83 |
| CN1CCC(=C2c3ccccc3C=Cc3ccccc32)CC1 [Compound 281, Cyproheptadine hydrochloride] | 86 |
| CC(=O)O[C@H]1C(=O)[C@@]2(C)[C@H]([C@H](OC(=O)c3ccccc3)[C@]3(O)C[C@H](OC(=O)[C@H](O)[C@@H](NC(=O)c4ccccc4)c4ccccc4)C(C)=C1C3(C)C)[C@]1(OC(C)=O)CO[C@@H]1C[C@@H]2O [Compound 1201, Taxol] | 84 |
| CC(=O)NCCc1c[nH]c2ccc(O)cc12 [Compound 29, N-Acetyl-5-hydroxytryptamine] | 110 |
| CCOC(=O)C1=C(C)NC(C)=C(C(=O)OC)C1c1cccc(Cl)c1Cl (stereo not drawn) [Compound 539, Felodipine] | 96 |
| CC[N+](CC)(CC)CCOc1ccc(/C=C/c2ccccc2)cc1 [Compound 757, MG 624] | 89 |
| CNC1(C)C2CCC(C2)C1(C)C (stereo not drawn) [Compound 805, Mecamylamine hydrochloride] | 114 |
| NC1(C(=O)O)CCc2cc(C(=O)O)ccc21 (stereo not drawn) [Compound 148, AIDA] | 95 |
| CCN(CC)CC.Nc1ncnc2c1ncn2C1OC2COP(O)(=S)O[C@@H]2[C@@H]1O (stereo partly drawn) [Compound 134, Rp-cAMPS triethylamine] | 67 |
| CC(=O)C(C)=O [Compound 375, 2,3-Butanedione] | 88 |
| C[N+](C)(C)CCOP(=O)([O-])OP(=O)([O-])OC[C@H]1O[C@@H](n2ccc(N)nc2=O)[C@H](O)[C@@H]1O.[Na+] [Compound 216, Citicoline sodium] | 91 |
| C=CC[C@H](N)C(=O)O [Compound 87, L-allylglycine] | 107 |
| CN(C)C(=O)C(CCN1CCC(O)(c2ccc(Cl)cc2)CC1)(c1ccccc1)c1ccccc1 [Compound 703, Loperamide hydrochloride] | 83 |
| Cc1nc(N=Nc2ccc(C(=O)O)cc2)c(COP(=O)(O)O)c(C=O)c1O [Compound 798, MRS 2159] | 91 |
| C[C@H]1C[C@H]2[C@@H]3CCC4=CC(=O)C=C[C@]4(C)[C@@]3(F)[C@@H](O)C[C@]2(C)[C@@]1(O)C(=O)CO [Compound 182, Betamethasone] | 89 |

Same assay, conditions: 10 µM compound, 300 nM dopamine, 2 hr; hit = compound effect <20

| Compound | Compound effect (percent receptor signaling in presence of test compound, relative lux units relative to the SCH23390 control) |
| --- | --- |
| CC(O)C(C)OC(=O)[C@@H]1C[C@@H]2c3cccc4c3c(cn4C(C)C)C[C@H]2N(C)C1.O=C(O)/C=C\C(=O)O (stereo partly drawn) [Compound 721, LY-53,857 maleate] | 73% |
| Cl.FC(F)(F)c1cc(CO[C@H]2CCCN[C@H]2c2ccccc2)cc(C(F)(F)F)c1 [Compound 732, L-733,060 hydrochloride] | 94% |
| R(-)-2,10,11-Trihydroxy-N-propylnoraporphine hydrobromide [Compound 438] | 88% |
| Cc1nc(N=Nc2cc(S(=O)(=O)[O-])c3cc([N+](=O)[O-])cc(S(=O)(=O)[O-])c3c2)c(COP(=O)([O-])[O-])c(C=O)c1O.[Na+].[Na+].[Na+].[Na+] [Compound 934, PPNDS tetrasodium] | 106% |
| CN(C)CCC(c1ccc(Br)cc1)c1ccccn1.O=C(O)/C=C\C(=O)O (racemic) [Compound 165, (±)-Brompheniramine maleate] | 63% |
| COc1ccc2cc([C@H](C)C(=O)[O-])ccc2c1.[Na+] [Compound 736, (-)-Naproxen sodium] | 105% |
| CCN(CC)CCNC(=O)c1ccc(NC(C)=O)cc1.Cl [Compound 65, N-Acetylprocainamide hydrochloride] | 126% |
| CN(C)C(N)=NCCC[C@H](N)C(=O)O.Cl [Compound 383, N^G,N^G-Dimethylarginine hydrochloride] | 106% |
| CS(=O)(=O)O.Cn1cc(C(F)(F)F)nc1-c1ccc(OCC(O)CNCCOc2ccc(O)c(C(N)=O)c2)cc1 (stereo not drawn) [Compound 349, CGP 20712A methanesulfonate] | 92% |
| NC(Cc1ccc(Cl)cc1)C(=O)O (racemic) [Compound 285, (±)-p-Chlorophenylalanine] | 62% |
| COc1ccc(CCN(C)CCc2ccc(OC)c(OC)c2)cc1OC.Cl [Compound 1274, YS-035 hydrochloride] | 93% |

Same assay, conditions: read-out: % of the SCH23390 effect (percent inhibition of receptor response relative to the SCH23390 control)

| Compound | inhibition at 10 µM |
| --- | --- |
| CC(=O)[C@]1(O)Cc2c(O)c3c(c(O)c2[C@@H](O[C@H]2C[C@H](N)[C@H](O)[C@H](C)O2)C1)C(=O)c1ccccc1C3=O [Compound 636, Idarubicin] | 83% |
